Measurements published in US6548082B1, “Methods for treating apnea and apnea disorders using optically pure R(+) ondansetron” (Sepracor Inc., priority 1999, dated 2003).
Read-outs that look alike come from different tables or passages of the source.

Key:
mongrel dogs [1] = details: dog, in vivo
Experimental: (§1) An investigation was conducted to determine the effect of racemic ondansetron and the R(+)- and S(−)-enanatiomers of ondansetron in causing cardiac arrhythmias (cardiotoxicity) resulting from a lengthening of the cardiac action potential.
(§2) The order of administration was randomized to ensure that each dog received only one treatment.

mongrel dogs [2] = assay: Electrophysiological (EKG) effects of ondansetron enantiomers and racemate in dogs, rising cumulative doses; details: for Death or survival of dogs during or shortly after the experiment: four dogs per treatment, 0-4.0 mg/kg cumulative
Experimental: as §1, §2

Cc1nccn1C[C@@H]1CCc2c(c3ccccc3n2C)C1=O [S(−)-Ondansetron, S(−) ondansetron]
Prolongation of QTc interval, compared among treatments (mongrel dogs [1]): most prolonged
QTc Interval (mongrel dogs [1]; 4 mg/kg): 0.44 ± 0.03 s

Cc1nccn1CC1CCc2c(c3ccccc3n2C)C1=O (racemic) [R,S-Ondansetron, ondansetron]
Prolongation of QTc interval, compared among treatments (mongrel dogs [2]; dogs, comparison in words of the three treatments): most prolonged
Death or survival of dogs during or shortly after the experiment (mongrel dogs [2]): survived

Cc1nccn1C[C@H]1CCc2c(c3ccccc3n2C)C1=O [R(+)-Ondansetron, R(+) ondansetron]
Cardiotoxicity, compared among treatments (mongrel dogs [2]; conclusion from QTc and mortality data in dogs): less cardiotoxicity than either S(−) ondansetron or racemic ondansetron
Death or survival of dogs during or shortly after the experiment (mongrel dogs [2]): survived
Prolongation of QTc interval, compared among treatments (mongrel dogs [1]): shortest
